Data reported in patent publication US10932466B2, “Fungicidal compositions” (SYNGENTA PARTICIPATIONS AG, priority 2016, dated 2021).
Like-named read-outs stand apart in the source and are kept apart here.

Assays:
Format in all cases: cell-based
Rhizoctonia solani = Rhizoctonia solani (Thanatephorus cucumeris) growth inhibition in PDB, 96-well microtiter plate, photometric and visual after 3-4 days; settings: for inhibition at 0.0063 ppm: 1.001 0.0063 ppm alone; for inhibition at 0.0125 ppm: 1.001 0.0125 ppm alone; for inhibition at 0.025 ppm: 1.001 0.0250 ppm alone; for inhibition at 0.05 ppm: 1.001 0.0500 ppm alone; for inhibition at 0.1 ppm: 1.001 0.1000 ppm alone
Experimental: VI) Rhizoctonia solani (Thanatephorus cucumeris) Mycelial fragments of a newly grown liquid culture of the fungus were directly mixed into nutrient broth (PDB potato dextrose broth). After placing a (DMSO) solution of the test compounds into a microtiter plate (96-well format), the nutrient broth containing the fungal material was added. The test plates were incubated at 24° C. and the inhibition of growth was determined photometrically and visually 3-4 days after application.

Venturia inaequalis = Venturia inaequalis (apple scab) growth inhibition in PDB, 96-well microtiter plate, photometric after 7 days; settings: for inhibition at 0.0016 ppm: 1.001 0.0016 ppm alone; for inhibition at 0.0031 ppm: 1.001 0.0031 ppm alone
Experimental: (§1) IV) Venturia inaeaualis (Apple Scab): Conidia of the fungus from cryogenic storage were directly mixed into nutrient broth (PDB potato dextrose broth). After placing a (DMSO) solution of the test compounds into a microtiter plate (96-well format), the nutrient broth containing the fungal spores was added. The test plates were incubated at 24 C and the inhibition of growth was determined photometrically after 7 days.

Septoria tritici = Septoria tritici (leaf blotch) growth inhibition in PDB, 96-well microtiter plate, photometric after 72 hrs; settings: Zymoseptoria tritici; for inhibition at 0.0008 ppm: 1.001 0.0008 ppm alone
Experimental: as §1, with “I) Septoria tritici (Leaf Blotch):” for “IV) Venturia inaeaualis (Apple Scab):”, “72 hrs.” for “7 days.”

Botrytis cinerea = Botrytis cinerea (gray mould) growth inhibition in PDB, 96-well microtiter plate, photometric after 72 hrs; settings: for inhibition at 0.0063 ppm: 1.001 0.0063 ppm alone
Experimental: as §1, with “V) Botrytis cinerea (Gray Mould):” for “IV) Venturia inaeaualis (Apple Scab):”, “72 hrs.” for “7 days.”

Alternaria solani = Alternaria solani (early blight tomato/potato) growth inhibition in PDB, 96-well microtiter plate, photometric after 48 hrs; settings: for Compound 1.001 inhibition: 1.001 0.0000 ppm, Table 11; for inhibition at 0.0008 ppm: 1.001 0.0008 ppm alone
Experimental: III) Altemaria solani (Early Blight Tomato/Potato):
as §1, with “Conidia” for “IV) Venturia inaeaualis (Apple Scab): Conidia”, “48 hrs.” for “7 days.”

[1] = test system: Mycosphaerella arachidis, syn. Cercospora arachidicola; assay: Mycosphaerella arachidis (peanut brown leaf spot) growth inhibition in PDB, 96-well microtiter plate, photometric after 5-6 days
Experimental: as §1, with “II) Mycosphaerella arachidis, syn. Cercospora arachidicola (Peanut Brown Leaf Soot):” for “IV) Venturia inaeaualis (Apple Scab):”, “approximately 5-6” for “7”

[2] = Table 8, read-out: Compound 1.001 inhibition
[3] = Table 14, read-out: Compound 1.001 inhibition
[4] = Table 6, read-out: Compound 1.001 inhibition
[5] = Table 12, read-out: Compound 1.001 inhibition

**Q.** `Cc1nnc(Cl)c(-c2c(F)cccc2F)c1-c1ccccc1` [(IIc), 4-(2,6-difluorophenyl)-3-chloro-6-methyl-5-phenyl-pyridazine] was tested. Which inhibition at 0.0313 ppm (Rhizoctonia solani; (IIc) 0.0313 ppm alone, Table 8) did it give?
**A.** 5%

**Q.** What about the inhibition at 0.0625 ppm (Rhizoctonia solani; (IIc) 0.0625 ppm alone, Table 8) of the same compound?
**A.** 31%

**Q.** And the inhibition at 0.125 ppm (Rhizoctonia solani; (IIc) 0.1250 ppm alone, Table 8)?
**A.** 85%

**Q.** What about the inhibition at 0.25 ppm (Rhizoctonia solani; (IIc) 0.2500 ppm alone, Table 8) of the same compound?
**A.** 88%

**Q.** And the inhibition at 0.0078 ppm (Venturia inaequalis; (IIc) 0.0078 ppm alone, Table 6)?
**A.** 0%

**Q.** What about the inhibition at 0.0156 ppm (Venturia inaequalis; (IIc) 0.0156 ppm alone, Table 6, read-out: (IIc) Inhibition) of the same compound?
**A.** 6%

**Q.** And the inhibition at 0.0313 ppm (Venturia inaequalis; (IIc) 0.0313 ppm alone, Table 6, read-out: (IIc) Inhibition)?
**A.** 0%

**Q.** What about the inhibition at 0.0156 ppm (Septoria tritici; (IIc) 0.0156 ppm alone, Table 4) of the same compound?
**A.** 1%

**Q.** And the inhibition at 0.0156 ppm (Botrytis cinerea; (IIc) 0.0156 ppm alone, Table 7)?
**A.** 5%

**Q.** What about the inhibition at 0.0313 ppm (Botrytis cinerea; (IIc) 0.0313 ppm alone, Table 7, read-out: (IIc) Inhibition) of the same compound?
**A.** 4%

**Q.** And the inhibition at 0.002 ppm (Alternaria solani; Alternaria solani, (IIc) 0.0020 ppm alone, Table 5)?
**A.** 0%

**Q.** What does the source list for `CON(C(=O)c1cn(C)nc1C(F)F)C(C)Cc1c(Cl)cc(Cl)cc1Cl` (stereo not drawn) [Compound 1.001, 3-(difluoromethyl)-N-methoxy-1-methyl-N-[1-methyl-2-(2,4,6-trichlorophenyl)ethyl]pyrazole-4-carboxamide]?
**A.** inhibition at 0.0031 ppm (Rhizoctonia solani; 1.001 0.0031 ppm alone, Table 8, read-out: Compound 1.001 inhibition): 13%; inhibition at 0.0063 ppm (Rhizoctonia solani; [2]): 16%; inhibition at 0.0063 ppm (Rhizoctonia solani; [3]): 0%; inhibition at 0.0125 ppm (Rhizoctonia solani; [2]): 0%; inhibition at 0.0125 ppm (Rhizoctonia solani; [3]): 0%; inhibition at 0.025 ppm (Rhizoctonia solani; [2]): 0%; inhibition at 0.025 ppm (Rhizoctonia solani; [3]): 9%; inhibition at 0.05 ppm (Rhizoctonia solani; [2]): 15%; inhibition at 0.05 ppm (Rhizoctonia solani; [3]): 0%; inhibition at 0.1 ppm (Rhizoctonia solani; [2]): 0%; inhibition at 0.1 ppm (Rhizoctonia solani; [3]): 0%; inhibition at 0.0004 ppm ([1]; 1.001 0.0004 ppm alone, Table 10, read-out: Compound 1.001 inhibition): 47%; inhibition at 0.0016 ppm (Venturia inaequalis; [4]): 62%; inhibition at 0.0016 ppm (Venturia inaequalis; [5]): 50%; inhibition at 0.0031 ppm (Venturia inaequalis; [4]): 84%; inhibition at 0.0031 ppm (Venturia inaequalis; [5]): 81%; inhibition at 0.0008 ppm (Septoria tritici; Table 4, read-out: Compound 1.001 inhibition): 49%; inhibition at 0.0008 ppm (Septoria tritici; Table 9, read-out: Compound 1.001 inhibition): 45%; inhibition at 0.0016 ppm (Septoria tritici; 1.001 0.0016 ppm alone, Table 9, read-out: Compound 1.001 inhibition): 81%; inhibition at 0.0063 ppm (Botrytis cinerea; Table 7, read-out: Compound 1.001 inhibition): 30%; inhibition at 0.0063 ppm (Botrytis cinerea; Table 13, read-out: Compound 1.001 inhibition): 34%; Compound 1.001 inhibition (Alternaria solani; (IId) 0.0039 ppm): 9%; Compound 1.001 inhibition (Alternaria solani; (IId) 0.0078 ppm): 6%; Compound 1.001 inhibition (Alternaria solani; (IId) 0.0156 ppm): 10%; Compound 1.001 inhibition (Alternaria solani; (IId) 0.0625 ppm): 6%; Compound 1.001 inhibition (Alternaria solani; (IId) 0.1250 ppm): 0%; inhibition at 0.0004 ppm (Alternaria solani; Alternaria solani, 1.001 0.0004 ppm alone, Table 11, read-out: Compound 1.001 inhibition): 26%; inhibition at 0.0008 ppm (Alternaria solani; Alternaria solani, Table 5, read-out: Compound 1.001 inhibition): 23%; inhibition at 0.0008 ppm (Alternaria solani; Alternaria solani, Table 11, read-out: Compound 1.001 inhibition): 34%; inhibition at 0.0016 ppm (Alternaria solani; Alternaria solani, 1.001 0.0016 ppm alone, Table 11, read-out: Compound 1.001 inhibition): 60%

**Q.** How did the inhibition at 0.5 ppm (Rhizoctonia solani; (IId) 0.5000 ppm alone, Table 14) turn out when `Cc1nnc(C#N)c(-c2c(F)cccc2F)c1-c1ccccc1` [(IId), 4-(2,6-difluorophenyl)-6-methyl-5-phenyl-pyridazine-3-carbonitrile] was run?
**A.** 31%

**Q.** And the inhibition at 0.0039 ppm ([1]; (IId) 0.0039 ppm alone, Table 10)?
**A.** 5%

**Q.** What about the inhibition at 0.0313 ppm ([1]; (IId) 0.0313 ppm alone, Table 10) of the same compound?
**A.** 5%

**Q.** And the inhibition at 0.0156 ppm (Venturia inaequalis; (IId) 0.0156 ppm alone, Table 12, read-out: (IId) Inhibition)?
**A.** 0%

**Q.** And the inhibition at 0.0313 ppm (Venturia inaequalis; (IId) 0.0313 ppm alone, Table 12, read-out: (IId) Inhibition)?
**A.** 15%

**Q.** What about the inhibition at 0.0625 ppm (Venturia inaequalis; (IId) 0.0625 ppm alone, Table 12) of the same compound?
**A.** 0%

**Q.** And the inhibition at 0.0313 ppm (Septoria tritici; (IId) 0.0313 ppm alone, Table 9)?
**A.** 3%

**Q.** What about the inhibition at 0.0625 ppm (Septoria tritici; (IId) 0.0625 ppm alone, Table 9) of the same compound?
**A.** 8%

**Q.** What about the inhibition at 0.0313 ppm (Botrytis cinerea; (IId) 0.0313 ppm alone, Table 13, read-out: (IId) Inhibition) of the same compound?
**A.** 0%

**Q.** What about the inhibition at 0.0625 ppm (Botrytis cinerea; (IId) 0.0625 ppm alone, Table 13) of the same compound?
**A.** 0%
